Test results taken from patent publication US5572996A, “In vivo pharmacokinetics of photosensitive drugs and method” (PDT Systems, Inc., priority 1996, dated 1996).
Read-outs that look alike come from different tables or passages of the source.

Assays:
skin cancers [1] = assay: Photodynamic therapeutic response to red light in a human subject; format: in vivo; details: 0.4 mg/kg SnET2, human subject
Description: (§1) FIG. 1 presents data from an actual human subject injected with SnET2 for the treatment of a number of skin cancers. A number of normal i.e. control sites, and tumor sites were measured prior to the SnET2 injection, (0.4 mg/kg) and at various times post injection. […] In summary, it is clear from the data provided that the method employing the measurement of the intensity of the exogenous chromophore fluorescence to the autofluorescence of a tissue provide a more accurate means for measuring the pharmacokinetics of an exogenous fluorescing chromophore in vivo. The finding is novel and to the inventor's knowledge has not been taught or acknowledged by others either in a patent or publication. Though the method was discovered and developed during the performance of work associated with photodynamic diagnosis and therapy, the utilization of the present method extends to other types of phototherapy. Any application requiring the in vivo monitoring of rate of change of concentration of a fluorescence chromophore in a tissue could use the present method. For example the in vivo pharmacokinetics of fluorescence labeled monoclonal antibodies for diagnostic or therapeutic application, and certain fluorescent antibiotics such as tetracycline, detection of highly proliferating atherosclerosis, among others. […]

[2] = design: species or system Spraig Dawley Rats; details: rat, in vivo
Description: (§2) Twenty-four hours prior to measurement the animals were injected either with a control solution, (carrier vehicle), or various concentrations of the exogenous chromophore, tin ethyl etiopurpurin, (SnET2). SnET2 is a synthetic chlorophyll analogue used in photodynamic light therapy (PDT) that has a relatively weak fluorescence emission, (Quantum yield of 0.01), an emission peak at 670 nm, and a maximum absorption/excitation at 440 nm. At measurement time the animals where anesthetized and then surgically opened to allow measurement of the fluorescence in various tissues. The measurement system used had the following characteristics:
(a) A single fiber was used to deliver excitation light;
(b) Excitation light was derived from a HeCd laser at 442 nm, […] total power delivered to the tissue;
(c) The excitation light was delivered to the target tissue by means of a fiber optic. Fluorescent light emitted by both exogenous and endogenous chromophores in the target tissue was conducted back to the measuring instrument by means of a bundle of smaller optical fibers surrounding the fiber delivering excitation light to the target tissue. Some of these fiber where directed to one PMT (photomultiplier tube) detector filtered for a 570 nm endogenous autofluorescence while the others (12 fibers) were coupled to a PMT filtered at 670 nm for detecting the SnET2 emission;
(d) Autoranging of the gains of the PMTs over five decades;
(e) A display of the 570 (Autofluorescence), 670 (SnET2),signals and the ratio of the two;
(f) An internal reference standard for setting the gain of each PMT prior to each use;
(g) Computer data storage.
The system operates by a foot paddle or a panel button. Activating either one causes the 23 system to take a reading in 1.6 seconds and store it in the display and computer memory. Prior to each use the illuminating probe excitation output is set to 1 mw but this is not necessary due to the ratioing concept.
(§3) A small correction can be made for the endogenous autofluorescence by subtracting the control values from the drug containing tissue to give a NET RATIO. This method permits compensation for background tissue difference while permitting accurate and sensitive measurement of the exogenous chromophore presence in the tissue. Chemical extraction of the SnET2 from the tissue allows correlation of the in-vivo drug concentration to the Ratio signal as shown in Table 3 below. Such a correlation would not be accurate or easily done with out using the Ratio concept.

[3] = design: species or system Spraig Dawley Rats; details: rat, in vivo, 24 h
Description: as §2, §3

skin cancers [4] = assay: In vivo fluorescence kinetics in a human subject with skin cancers (tumor and normal sites); details: 0.4 mg/kg SnET2, human subject
Description: as §1

In the case of CCOC(=O)C1=Cc2c3nc(cc4nc(cc5[n-]c(cc6[n-]c2c(C)c6CC)c(C)c5CC)C(C)=C4CC)[C@@H](C)[C@]13CC.[Cl-].[Cl-].[Sn] (racemic) [SnET2, tin ethyl etiopurpurin], the “response to red light exposure” value (skin cancers [1]) is reported as “gave a response correlating to the magnitude of the ratio signal”, the “Net Ratio, kidney” value ([2]; 1 mg/kg) is reported as 1.73 ± 0.42 and the “Net Ratio, liver” value ([2]; 1 mg/kg) is reported as 17.8 ± 2.15. For the same molecule, the “Net Ratio, kidney” value ([2]; 2 mg/kg) was 2.48 ± 0.14, the “Net Ratio, liver” value ([2]; 2 mg/kg) was 30.0 ± 5.5 and the “Net Ratio, kidney” value ([2]; 4 mg/kg) was 4.24 ± 0.90. The “Net Ratio, liver” value ([2]; 4 mg/kg) was 50.1 ± 12.8, the “Extraction (tissue drug concentration), kidney” value (from here on “Extraction … kidney”) ([3]; 1 mg/kg) was 1.87 ± 0.14 µg/g and the “Extraction (tissue drug concentration), liver” value (from here on “Extraction … liver”) ([3]; 1 mg/kg) was 13.2 ± 0.91 µg/g. For the same molecule, the “Extraction … kidney” value ([3]; 2 mg/kg) was 3.56 ± 0.11 µg/g, the “Extraction … liver” value ([3]; 2 mg/kg) was 27.2 ± 2.5 µg/g and the “Extraction … kidney” value ([3]; 4 mg/kg) was 5.49 ± 0.54 µg/g. The “Extraction … liver” value ([3]; 4 mg/kg) was 59.2 ± 8.9 µg/g, the “drug uptake in tumors versus control/normal sites (Net Ratio, FIG. 3)” value (skin cancers [4]) was “the tumors take up the drug significantly more than the control/normal sites” and the “SnET2 fluorescence at 670 nm with site and time (FIG. 2)” value (skin cancers [4]; unratioed signal) was “greatly varies with site and time”.
